According to BigSolDB 2.1:

CC(=O)O[C@H]1CC[C@@]2(C)C(=CC[C@@H]3[C@@H]2CC[C@]2(C)C(C(C)=O)=CC[C@@H]32)C1
Settings	solubility (mole fraction)
in acetone, 278.55 K	0.00427
in acetone, 281.35 K	0.0048
in acetone, 284.75 K	0.00538
in acetone, 288.65 K	0.00622
in acetone, 291.75 K	0.00678
in acetone, 293.95 K	0.00731
in acetone, 296.75 K	0.008
in acetone, 299.05 K	0.00875
in acetone, 301.55 K	0.00955
in acetone, 304.25 K	0.0105
in cyclohexane, 291.95 K	0.00212
in cyclohexane, 300.25 K	0.00314
in cyclohexane, 302.75 K	0.00363
in cyclohexane, 305.75 K	0.00426
in cyclohexane, 309.25 K	0.0049
in cyclohexane, 312.95 K	0.00574
in cyclohexane, 315.9 K	0.00662
in cyclohexane, 320.15 K	0.00767
in cyclohexane, 322.95 K	0.00878
in cyclohexane, 327.85 K	0.0112
in cyclohexane, 332.25 K	0.0135
in cyclohexane, 336.45 K	0.0162
in cyclohexane, 340.35 K	0.019
in ethanol, 285 K	0.00103
in ethanol, 289.85 K	0.00128
in ethanol, 292.6 K	0.00144
in ethanol, 294.95 K	0.00162
in ethanol, 297.65 K	0.00185
in ethanol, 300.95 K	0.0021
in ethanol, 304.55 K	0.0024
in ethanol, 307.55 K	0.00277
in ethanol, 310.55 K	0.00319
in ethanol, 314.15 K	0.00371
in ethanol, 317.55 K	0.00432
in ethanol, 321.35 K	0.00503
in ethanol, 324.55 K	0.00583
in ethanol, 327.05 K	0.0065
in methanol, 282.75 K	0.000402
in methanol, 286.85 K	0.000491
in methanol, 291.95 K	0.000632
in methanol, 295.15 K	0.000779
in methanol, 299.95 K	0.000965
in methanol, 303.85 K	0.00112
in methanol, 309.25 K	0.00142
in methanol, 312.15 K	0.0016
in methanol, 315.55 K	0.00185
in methanol, 318.35 K	0.00215
in methanol, 320.05 K	0.00231
